Assay results published in US20210315898A1, “COMBINATION THERAPY FOR TREATING CANCER” (AstraZeneca AB, priority 2018, published 2021).

Columns and labels:
[1] = test system: KG1a AML cells; experiment: KG1a subcutaneous xenograft model of AML, tumor volume; type: in vivo, SCID mice; settings: FIG. 1, AZD2811 nanoparticles 100 mg/kg iv once weekly, 5-azacytidine 1 mg/kg ip twice-daily for three days, 4 rest days, 3 weekly cycles, start day 1
Experimental: (§1) KG1a: 2×10^7 KG1a AML cells in 50% matrigel were implanted subcutaneously on the left flank of adult female SCID mice. Mice were randomised into groups of 12 and dosing was started for all drugs and all combinations at day 1 (D1) following implant. AZD2811 nanoparticles were dosed at once weekly with a 20-30 s intravenous infusion at 100 mg/kg (100 mg/kg was the maximum tolerated dose in combination 5-azacytidine at 1 mg/kg; 5-azacytidine was dosed twice-daily for three days by the intraperitoneal route, followed by 4 rest days of no dosing). All drugs were given for 3 weekly cycles. Tumors were measured twice weekly by single operators, and all dosing was performed by randomised cage to minimise systematic bias. Mice reached study surival endpoint when tumors reached 1.5 cm^3.

[2] = test system: HL-60 AML cells; experiment: HL-60 subcutaneous xenograft model of AML, tumor volume and survival; type: in vivo, SCID mice; settings: HL-60 xenograft, FIG. 2; AZD2811 nanoparticles 25 mg/kg iv once weekly; 5-azacytidine 1 mg/kg ip twice-daily for three days, 4 rest days; 3 weekly cycles, start day 7; monotherapy compared with KG1a model
Experimental: as §1, with “HL-60: 1×10^7 HL-60 AML” for “KG1a: 2×10^7 KG1a AML”, “day 7 respectively” for “day 1 (D1)”, “at either 25” for “at 100”, “study survival” for “study surival”, “1.5 cm^3” for “1.5 cm^3.”

Nc1ncn([C@@H]2O[C@H](CO)[C@@H](O)[C@H]2O)c(=O)n1 [5-azacytidine, 4-amino-1-(β-D-ribofuranosyl)-1,3,5-triazin-2(1H)-one]
efficacy (reduction in tumor volume over time) [1]: modestly efficacious | efficacy (reduction in tumor volume over time) [2]: greater efficacy
